# Laboratory results: publication PMC8113459, “Selective inhibition of cullin 3 neddylation through covalent targeting DCN1 protects mice from acetaminophen-induced liver toxicity” (Nature Communications, 2021)
# “And” between values parts separate entries of the source, which are not always exact repeats. Equal values may be shown once.
# Legend:
# DCN1 = DCN1 (Homo sapiens, UniProt Q96GG9); assay: Intact-protein mass spectrometric analysis of covalent complex formation, Method A; format: binding; conditions: for Percentage of the formation of covalent complex with DCN1 protein: 37 °C
# DCN1, sequence (Q96GG9 58-259 limits assumed): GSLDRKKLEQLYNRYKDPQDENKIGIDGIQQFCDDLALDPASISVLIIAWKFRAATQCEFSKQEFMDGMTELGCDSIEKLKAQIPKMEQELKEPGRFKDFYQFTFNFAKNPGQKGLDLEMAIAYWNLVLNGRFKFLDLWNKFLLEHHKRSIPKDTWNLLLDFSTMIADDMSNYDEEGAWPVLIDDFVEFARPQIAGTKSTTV
# Source text: MassHunter Qualitative Analysis software (Agilent) was used to analyze the data. Intact protein masses were obtained using the maximum entropy deconvolution algorithm. The mass spectrometry data in Supplementary Figs. 1–11 were generated by Method A.
# U2OS cells = assay: Cell viability assay (WST-8), U2OS; format: cell-based, human; conditions: for cell viability relative to control: replicates
# Description: (§1) Cell viability assay was performed as previously described. The effect of DCN1 inhibitors on cell growth was evaluated by a WST-8 [2-(2-methoxy-4-nitrophenyl)-3-(4-nitrophenyl)-5-(2,4-disulfophenyl)-2H-tetrazolium, monosodium salt assay (Dojindo Molecular Technologies, Inc). Cells (2000–3000 cells in each well) were seeded in 96-well tissue culture plates in medium (100 μL) and treated with serial dilution of DCN1 inhibitors for 3 days. At the end of incubation, WST-8 dye (20 μL) was added to each well and incubated for 1–3 h, then the absorbance was measured in a microplate reader (Molecular Devices) at 450 nm. Cell growth inhibition was evaluated as the ratio of the absorbance of the sample to that of the control. The values were inserted into Prism software, and the curves and the EC50 values were produced by Prism software.
# [1] = Cell viability assay (WST-8), HCT116; format: cell-based, human; conditions: human, HCT116 cells, replicates, read-out: cell viability relative to control
# Description: as §1
# HCT116 cells = assay: Cell viability assay (WST-8), HCT116; format: cell-based, human; conditions: for cell viability relative to control: replicates
# Description: as §1
# [2] = Cell viability assay (WST-8), MDA-MB-231; format: cell-based, human; conditions: human, MDA-MB-231 cells, replicates, read-out: cell viability relative to control
# Description: as §1
# MDA-MB-231 cells = assay: Cell viability assay (WST-8), MDA-MB-231; format: cell-based, human; conditions: for cell viability relative to control: replicates
# Description: as §1
# neddylation of cullin 3 [3] = assay: Western blot, cullin 3 neddylation in cells of different tissue types (U2OS, THLE2, MDA-MB-231, KYSE70, HCT116); format: cell-based, human
# Description: (§2) Western blotting was performed as described previously. Treated cells were lysed by RIPA buffer supplemented with protease inhibitor. The expression level of indicated proteins was examined by immunoblotting analysis and GAPDH was used as the loading control. Antibodies were purchased commercially: cullin 1 (sc-17775, 1:500 dilution) and cullin 2 (sc-166506, 1:500 dilution) from Santa Cruz Biotech (Santa Cruz, CA); cullin 4A (PA5-14542, 1:1000 dilution), cullin 4B (PA5-50647, 1:1000 dilution), and DCN3 (DCUN1D3, PA5-44000, 1:1000 dilution) from Thermo Fisher Scientific (Wayne, MI); cullin 3 (2759, 1:1000), NRF2 (12721, 1:1000 dilution), HO-1 (70081, 1:1000 dilution), and Bim (2819, 1:1000 dilution) from Cell Signaling Technology (Boston, MA); DCN1 (GWB-E3D700, 1:1000 dilution) from GenWay Biotech (San Diego, CA); and cullin 5 (A302-173A, 1:500 dilution) from Bethyl Labs (Montgomery, TX). Results are representative of two independent experiments.
# [4] = system: APAP-induced liver injury; assay: APAP-induced liver injury: alanine aminotransferase (ALT) level; format: in vivo, mouse; conditions: single dose 400 mg/kg, IP
# Description: (§3) The in vivo studies were performed under animal protocols (PRO00007499) and (PRO00006638) approved by the Institutional Animal Care & Use Committee of the University of Michigan, in accordance with the recommendations in the Guide for the Care and Use of Laboratory Animals of the National Institutes of Health. C57BL/6 WT mice (~8 weeks, male, normal chow) were purchased from the Jackson Laboratory and randomly divided into eight groups (8–9 mice per group) treated (IP) as follows: phosphate-buffered saline vehicle once per day for 3 days (G1), APAP alone a single dose at 400 mg/kg on day 1 (G2), DI-1859 alone 25 mg/kg once per day for 3 days (G3), DI-1859 alone 50 mg/kg once per day for 3 days (G4), pretreatment (1 day before the APAP administration) with DI-1859 at 25 mg/kg once per day for 3 days followed with APAP at 400 mg/kg on day (G5), pretreatment (1 day before the APAP administration) with DI-1859 at 50 mg/kg once per day for 3 days followed with APAP at 400 mg/kg on day (G6), APAP a single dose at 400 mg/kg (3 h before the first DI-1859 administration) followed with DI-1859 at 25 mg/Kg once per day for 3 days (G7), and APAP a single dose at 400 mg/kg (3 h before the first DI-1859 administration) followed with DI-1859 at 50 mg/Kg once per day for 3 days (G8).
# (§4) To induce acute liver injury, animals received PBS or APAP (400 mg/kg, sigma, A7085) through I.P. injection at 12 p.m. and were sacrificed 48 h afterward. To examine the protective effect of DI-1859 (groups 5 and 6), animals were I.P. injected with compound for 3 consecutive days (9 a.m. on each day, starting 1 day before APAP administration). To examine the restorative effect of DI-1859 (groups 7 and 8), animals were I.P. injected with compound 3 h after APAP administration followed by two additional treatments (9 a.m. on the next 2 days). Body weight and blood glucose level measurement, along with blood sample collection, were performed at 12 p.m. on each day.
# Blood glucose levels were determined using glucometers (Bayer Corp., Pittsburgh, PA). Plasma ALT activity was measured using an ALT reagent set (Pointe Scientific Inc., Canton, MI).
# [5] = system: APAP-induced liver injury; assay: APAP-induced liver injury: ROS assay in liver tissue; format: in vivo, mouse; conditions: G2: APAP 400 mg/kg, a single dose
# Description: as §3, §4
# Liver samples were homogenized in a lysis buffer and mixed with a dichlorofluorescein diacetate fluorescent probe (DCF, Sigma, D6883) to a final probe concentration of 5 µM for 1 h at 37 °C. DCF fluorescence was measured using a BioTek Synergy 2 Multi-Mode Microplate Reader (485 nm excitation and 527 nm emission).
# neddylation of cullin 3 [6] = assay: Western blot, cullin 3 neddylation in U2OS cells; format: cell-based, human; conditions: 24 h, Fig. 1c
# Description: as §2
# NRF2 protein = assay: Western blot, NRF2 protein accumulation in cells; format: cell-based, human; conditions: 100 nM
# Description: as §2
# [7] = 10 min incubation, 1.2-fold excess inhibitor
smiles,measurement,setting,value
CCC(=O)N[C@@H](Cc1nc2ccc(C(C)C)cc2s1)C(=O)N[C@H](CNC(=O)/C=C/CN(C)C)C1CCCCC1 [compound 5],covalent complex formation / reaction kinetics with DCN1 protein (in words),DCN1,reaction kinetics similar to that of 3
same,Percentage of the formation of covalent complex with DCN1 protein,DCN1; [7],0%
same,Percentage of the formation of covalent complex with DCN1 protein,DCN1; 60 min (1 h) incubation,0%
same,Percentage of the formation of covalent complex with DCN1 protein,DCN1; 180 min (3 h) incubation,2%
same,Percentage of the formation of covalent complex with DCN1 protein,DCN1; 720 min (12 h) incubation,30%
CCC(=O)N[C@@H](Cc1nc2ccc(C(C)C)cc2s1)C(=O)N[C@H](CNC(=O)CCN1CCOCC1)C1CCCCC1 [DI-591],EC50,"U2OS cells; Homo sapiens, U2OS, 72 h, read-out: EC50, cell growth inhibition",> 1 µM
same,cell viability relative to control,"U2OS cells; conc 10, 72 h",113.521 and 92.8169 and 93.8028
same,cell viability relative to control,"U2OS cells; conc 30, 72 h",110.282 and 96.9014 and 89.8591
same,cell viability relative to control,"U2OS cells; conc 100, 72 h",112.958 and 95.2113 and 89.4366
same,cell viability relative to control,"U2OS cells; conc 300, 72 h",115.211 and 91.5493 and 99.0141
same,cell viability relative to control,"U2OS cells; conc 1000, 72 h",84.9296 and 111.127 and 85.7746
same,viability at 72 h,"[1]; conc 3, 72 h",106%
same,viability at 72 h,"[1]; conc 10, 72 h",94.3%
same,viability at 72 h,"[1]; conc 30, 72 h",90%
same,viability at 72 h,"[1]; conc 1000, 72 h",94.3%
same,EC50,"HCT116 cells; Homo sapiens, HCT-116, 72 h, read-out: EC50, cell growth inhibition",> 1 µM
same,cell viability relative to control,"HCT116 cells; conc 3, 72 h",106.068 and 106.647
same,cell viability relative to control,"HCT116 cells; conc 10, 72 h",94.7863 and 106.766
same,cell viability relative to control,"HCT116 cells; conc 30, 72 h",103.675 and 96.2874
same,cell viability relative to control,"HCT116 cells; conc 100, 72 h",92.6577 and 103.333 and 79.1617
same,cell viability relative to control,"HCT116 cells; conc 300, 72 h",90.9009 and 107.521 and 85.6886
same,cell viability relative to control,"HCT116 cells; conc 1000, 72 h",100.085 and 92.0359
same,viability at 72 h,"[2]; conc 10, 72 h",94.3%
same,viability at 72 h,"[2]; conc 30, 72 h",113%
same,viability at 72 h,"[2]; conc 100, 72 h",109%
same,viability at 72 h,"[2]; conc 300, 72 h",105%
same,viability at 72 h,"[2]; conc 1000, 72 h",94.9%
same,EC50,"MDA-MB-231 cells; Homo sapiens, MDA-MB-231, 72 h, read-out: EC50, cell growth inhibition",> 1 µM
same,cell viability relative to control,"MDA-MB-231 cells; conc 10, 72 h",101.954 and 101.609
same,cell viability relative to control,"MDA-MB-231 cells; conc 30, 72 h",108.276 and 97.3563
same,cell viability relative to control,"MDA-MB-231 cells; conc 100, 72 h",100.345 and 97.5862
same,cell viability relative to control,"MDA-MB-231 cells; conc 300, 72 h",105.517 and 106.667
same,cell viability relative to control,"MDA-MB-231 cells; conc 1000, 72 h",102.644
C=C(Cn1ccnc1)C(=O)NC[C@@H](NC(=O)[C@H](Cc1nc2ccc(C(C)C)cc2s1)NC(=O)CC)C1CCCCC1 [compound 10],potency in inhibition of cullin 3 neddylation compared with DI-1548,"neddylation of cullin 3 [3]; in cell, Supplementary Fig. 12",ten times less potent than DI-1548
same,covalent complex formation / reaction kinetics with DCN1 protein (in words),DCN1,slower reaction kinetics with DCN1 than DI-1548 and DI-1859
same,Percentage of the formation of covalent complex with DCN1 protein,DCN1; [7],80%
same,Percentage of the formation of covalent complex with DCN1 protein,DCN1; 60 min (1 h) incubation,100%
same,Percentage of the formation of covalent complex with DCN1 protein,DCN1; 180 min (3 h) incubation,100%
same,Percentage of the formation of covalent complex with DCN1 protein,DCN1; 720 min (12 h) incubation,100%
"CC(=O)Nc1ccc(O)cc1 [APAP, acetaminophen]",hepatotoxicity in mice,[4],induced severe hepatotoxicity
same,"ROS level in mouse liver tissue, mean",[5],12.4435 A.U./ug
same,"ROS level normalised to the mean of G1 (vehicle), mean",[5],1.645
C=C(CCN(C)C)C(=O)NC[C@@H](NC(=O)[C@H](Cc1nc2ccc(C(C)C)cc2s1)NC(=O)CC)C1CCCCC1 [compound 9],potency in inhibition of cullin 3 neddylation compared with DI-591,neddylation of cullin 3 [6],much more potent than DI-591
same,covalent complex formation / reaction kinetics with DCN1 protein (in words),DCN1,much slower reaction kinetics than 6 and 7
same,Percentage of the formation of covalent complex with DCN1 protein,DCN1; 60 min (1 h) incubation,30%
same,Percentage of the formation of covalent complex with DCN1 protein,DCN1; 180 min (3 h) incubation,50%
same,Percentage of the formation of covalent complex with DCN1 protein,DCN1; 720 min (12 h) incubation,100%
C=C(CN(C)C)C(=O)NC[C@H](NC(=O)[C@@H](Cc1nc2ccc(C(C)C)cc2s1)NC(=O)CC)C1CCCCC1 [DI-1859DD],"times less potent than DI-1548 and DI-1859, respectively, on cullin 3 neddylation",neddylation of cullin 3 [3],> 300 times
same,effect on the neddylation of cullin 3,neddylation of cullin 3 [3]; 100–300 nM,no significant effect
same,accumulation of NRF2 protein,NRF2 protein,no obvious accumulation
C=C(CCN1CCOCC1)C(=O)NC[C@@H](NC(=O)[C@H](Cc1nc2ccc(C(C)C)cc2s1)NC(=O)CC)C1CCCCC1 [compound 8],potency in inhibition of cullin 3 neddylation compared with DI-591,neddylation of cullin 3 [6],much more potent than DI-591
same,covalent complex formation / reaction kinetics with DCN1 protein (in words),DCN1,much slower reaction kinetics than 6 and 7
same,Percentage of the formation of covalent complex with DCN1 protein,DCN1; 60 min (1 h) incubation,15%
same,Percentage of the formation of covalent complex with DCN1 protein,DCN1; 720 min (12 h) incubation,100%
